Measured values from PMC4026384, “Antibacterial Activity of THAM Trisphenylguanide against Methicillin-Resistant Staphylococcus aureus” (PLoS ONE, 2014).

Tests used:
MRSA = test: In vivo MRSA challenge (intraperitoneal infection); parameters: species or system BALB/c mice; conditions: mice, 8 h post infection
Experimental: Three groups of BALB/c mice (8 mice per group) were infected by intraperitoneal (i.p.) injection with 5×10^7 MRSA in 100 µl sterile PBS [16], [17]. The first treatment group was injected i.p. with 100 µl of 100 µM THAM trisphenylguanide in PBS immediately after infection. The second group was injected i.p. with 100 µl of 100 µM THAM trisphenylguanide one hour post-infection. The control group was injected with 100 µl PBS. At eight hours post-infection, all mice were euthanized. An intraperitoneal lavage using 10 ml PBS was performed to recover bacteria within the peritoneal cavity and plated at multiple dilutions on TSA plates. The heart and kidney were removed for evaluation of systemic infection. Briefly, tissues were weighed, homogenized, and plated at multiple dilutions on TSA plates. TSA plates were incubated overnight at 37°C at 5% CO2 and CFU enumerated the next day.

[1] = system: HaCaT human keratinocytes; test: Cell toxicity assay (MTS); type: cell-based
[2] = system: human breast cancer cell line MDA-MB-231; test: Cell toxicity assay (MTS); type: cell-based; conditions: MDA-231
[3] = 100 µM i.p. one hour after MRSA infection

With `N=C(NCCCCCCNc1nc(NCCCCCCNC(=N)Nc2ccccc2)nc(NCCCCCCNC(=N)Nc2ccccc2)n1)Nc1ccccc1` [THAM-3ΦG, Trishexylaminomelamine trisphenylguanide] the “reduction in bacterial burden in both organs (kidneys, heart) and IP lavage” value (MRSA; 100 µM i.p. immediately after MRSA challenge, versus PBS) was “approximately 3 log”, the “reduction of mean CFUs in IP lavages” value (MRSA; [3]) was 2 fold and the “reduction of mean CFUs in heart” value (MRSA; [3]) was 3 fold. For the same molecule, the “reduction of mean CFUs in kidneys” value (MRSA; [3]) was 20 fold, the “Relative to chlorhexidine (factor by which cytotoxicity was reduced)” value [1] was 7.1 and the “Relative to chlorhexidine (factor by which cytotoxicity was reduced)” value [2] was 3.0.
